Several values for one entry are separate records, joined by “and”; a condition that tells them apart may be missing. Identical values can stand only once. Like-named read-outs stand apart in the source and are kept apart here.
Tests used:
[1] = system: Escherichia coli K 12 envA uvr B (λ), GY 5027; assay type: cell-based; settings: for Inactivation of mutagenicity (phage induction activity) of adriamycin, dose-response: absence of S9 mix, molar ratios to adriamycin 1:1 to 30:1 (FIG. 12)
From the text: Inductest III (P. Morean, A. Bailone and R. Devoret: Proc. Natl. Acad. Sci. U.S.A., Vol. 73, No. 10, 3700-3704, '76). This method is a test for mutagenicity using prophage λ induction as an index. The strains used in this method were Escherichia coli K 12 envA uvr B (λ), GY 5027 and as λ indicator GY 4015 (Amp R).
This method uses phage induction activity as an index.
Potassium sulfite was used as a sulfite compound and potassium pyrosulfite which produces 2 equivalents of hydrogensulfite ion when dissolved in water was used as acid sulfite.
Dithionite produces two equivalents of hydrogensulfite ions when dissolved in water.
The molar ratio of sodium dithionite to daunomycin was 15:1. In FIGS. 13 and 14 the symbol indicates daunomycin alone and the symbol indicates daunomycin plus sodium dithionite.
Sodium sulfite was used as a sulfite at a molar ratio of sodium sulfite to daunomycin of 30:1.

[2] = system: Salmonella typhimurium TA 98; test: Ames test (Preincubation Method): mutagenicity and its inactivation by sulfite compounds; settings: FIGS. 1, 6 and 7 (also FIGS. 3 and 4, Inductest III)
Procedure: This method is based on the Ames test (B. N. Ames, J. Mac Gann and E. Yamasaki: Mutation Research, Vol. 31, 347-364, '75). […] The strain used in this method was histidine requisite Salmonella typhimurium TA 100 and TA 98 (hereinafter referred to as St TA 100 and St TA 98).
At the same time, predetermined amounts of sodium sulfite, sodium hydrogensulfite (sodium acid sulfite), sodium pyrosulfite, sodium dithionite or sulphurous anhydride were dissolved in aseptic distilled water.
To 100 μl of each of the samples prepared in the above (2), 500 μl of 100 mM sodium phosphate buffer (pH 7.4) and 100 μl of a culture of St TA 100 or St TA 98 were added. Each mixture was shaken for 20 minutes at 37° C., added to 2.5 ml of a soft agar solution and spread on 0.1% glucose agar plate which had been supplemented with 0.1 μM per plate of histidine in order to create several divisions. After incubation at 37° C. for 48 hours, the number of colonies on the plate was counted as revertants. This method uses nutrient requisiteness of the above strains as an index.

L1210 cells = test: In vivo carcinostatic activity against transplanted L1210 cells (ILS, survivors); settings: i.p.
Procedure: Male BDF1 mice (57BL/6XDBA/2) weighing 19-20 g were used in this experiment. Feed (CA-1, Nihon Kurea Kabushiki Kaisha, Meguro-ku, Tokyo, Japan) and water were freely taken. 1×10^5 L 1210 cells were intraperitoneally transplanted to a mouse in each group of 6 mice. Test substances were intraperitoneally administered to mice 24 hours after i.p. injection of L1210 cells and thereafter one time each day for 5 days. Survival days of all of the mice were recorded and carcinostatic effects of the test compounds were measured by using index of life spread (ILS %) to the control group.

male CD-1 (ICR) mice = test: Acute toxicity in mice (survival days)
Procedure: Male CD-1 (ICR) mice (12 weeks old) were used as test animals. The temperature in the animal room was maintained at 23° C. (±3° C.) and relative humidity was kept at 30-70%. Artificial lighting was carried out by illumination and darkening at successive intervals of 12 hours.
The test substances were dissolved in distilled water and intraperitoneally administered to the animals at a dose of 10 ml/kg.
The above t-test was carried out as follows.

DNA = settings: cited from earlier work
[3] = system: strains used (Salmonella typhimurium, Escherichia coli); test: Growth / survival of the strains used in the mutagenicity tests; assay type: cell-based; settings: explains apparent reduction of mutagenicity at high levels
[4] = Japanese Patent application No. 144272/81; cited from earlier work

O=S([O-])S(=O)(=O)[O-].[K+].[K+] [acid sulfite, potassium pyrosulfite]
Inactivation of mutagenicity (phage induction activity) of adriamycin, dose-response [1]: the more remarkably the mutagenicity of adriamycin was inactivated

COc1cccc2c1C(=O)c1c(O)c3c(c(O)c1C2=O)C[C@@](O)(C(=O)CO)C[C@@H]3O[C@H]1C[C@H](N)[C@H](O)[C@H](C)O1 [adriamycin]
Apparent change of mutagenicity at high levels of the antibiotic per se [2]: appear to be reduced at high levels | Survivors (on Day 60) (L1210 cells; adriamycin 1 mg/kg/day × 5, sodium hydrogensulfite 0): 1 and 1/6 | Survivors (on Day 60) (L1210 cells; adriamycin 3 mg/kg/day × 5, sodium hydrogensulfite 0): zero and 0/6 | Survival days, individual mouse (male CD-1 (ICR) mice; experiment (1): adriamycin 20 mg/kg i.p. daily for 3 days, no hydrogensulfite, mice No. 1-12 in order): 0 days (8×) and 1 days (4×) | Survival days, mean (x) (male CD-1 (ICR) mice; experiment (1): adriamycin 20 mg/kg i.p. daily for 3 days, no hydrogensulfite, n=12, s 0.5778): 0.3333 days | Survival days, individual mouse (male CD-1 (ICR) mice; experiment (2): adriamycin alone 20 mg/kg i.p., mice No. 1-11 in order, listed as ADM): 14 days and 7 days and 6 days and 5 days and 4 days | Survival days, mean (x) (male CD-1 (ICR) mice; experiment (2): adriamycin alone 20 mg/kg i.p., n=11, s 2.747): 7.545 days | Base pairs of DNA reacting per one molecule (intercalation) (DNA): 3 base pairs

COc1cccc2c1C(=O)c1c(O)c3c(c(O)c1C2=O)C[C@@](O)(C(C)=O)C[C@@H]3O[C@H]1C[C@H](N)[C@H](O)[C@H](C)O1 [daunomycin]
Apparent change of mutagenicity at high levels of the antibiotic per se [2]: appear to be reduced at high levels | Base pairs of DNA reacting per one molecule (intercalation) (DNA): 3 base pairs | Cellular toxicity [3]: have cellular toxicity

O=S(O)O [hydrogensulfite ion]
Hydrogensulfite ion in molar concentration necessary for complete inactivation of mutagenicity of adriamycin ([1]; absence of S9 mix (FIG. 5)): at least ten

O=S([O-])S(=O)[O-].[Na+].[Na+] [sodium dithionite]
Inactivation of mutagenicity of daunomycin (phage induction) ([1]; molar ratio dithionite to daunomycin 15:1, independently of S9 mix (FIGS. 13 and 14)): completely inactivated

O=S([O-])O.[Na+] [sodium hydrogensulfite]
Reduction of toxicity of adriamycin (t-test of survival days) (male CD-1 (ICR) mice; experiment (1): adriamycin 20 mg/kg for 3 days, sodium hydrogensulfite 53.8 mg/kg (FIG. 10)): significantly reduced toxicity at a confidence level of 90%

O=S([O-])[O-].[Na+].[Na+] [sodium sulfite]
Inactivation of mutagenicity of daunomycin (phage induction) ([1]; molar ratio sodium sulfite to daunomycin 30:1, absence and presence of S9 mix (FIGS. 15 and 16)): completely inactivated

O=S(O)O [sulfite ion]
Inactivation of mutagenicities of coffee, tobacco tar and spirits [4]: inactivates mutagenicities

O=S([O-])[O-].[K+].[K+] [sulfite, potassium sulfite]
Inactivation of mutagenicity (phage induction activity) of adriamycin, dose-response [1]: the more remarkably the mutagenicity of adriamycin was inactivated
